Experimental findings from US12521393B2, “Cytotoxicity targeting chimeras for CCR2-expressing cells” (GLAXOSMITHKLINE INTELLECTUAL PROPERTY DEVELOPMENT LIMITED, priority 2021, dated 2026) are described below.

The test system of test [1] is endogenous target monocytes in human PBMC. Description: PBMC ex vivo monocyte depletion flow cytometry assay (Example 200). The class given is cell-based. The settings on record: with anti-cotinine antibody (SEQ ID NO: 11/12), 18-24 hours, EC50 in molar, read-out: Ex Vivo Depletion Assay pEC50 (converted). In short, it runs like this: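 Monocyte depletion is reported as pEC50, averaged or given individually across runs, and read by flow cytometry staining CD45, CD14 and CD4 with a viability dye. Compounds, diluted four-fold over 11 points from 1 mM DMSO stocks, were combined with 30 μg/mL Fc-enhanced anti-cotinine antibody and human PBMC, then incubated 18-24 h at 37° C.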
Background: A flow cytometer gives signals particle by particle.

Test [2] concerns CCR2 expressing cells (CD11b+Ly6c+Hi) in peripheral blood. Description: In vivo depletion assay, flow cytometry of peripheral blood (Example 201). The settings on record: hCCR2 knock-in mice, IV 0.1 mpk compound + 10 mpk anti-cotinine antibody (SEQ ID NO: 13/14), peripheral blood at 48 hr. The arrangement: species or system human CCR2 knock-in mice (C57 background). An outline of the steps: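 Mice dosed with compound formulated in saline/DMSO/PBS, with anti-cotinine antibody (rabbit variable region, mouse IgG2a Fc) where required, pre-incubated 30 min at room temperature. Terminal peripheral blood RBC-lysed, Fc-blocked, stained for CD45, CD3, CD11b, Ly6C, human CCR2 and 7AAD; percent depletion of CD11b+Ly6c+Hi cells determined by flow cytometry.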

Molecules are shown by their SMILES.

With `CC(C)N(C)[C@@H]1CC[C@H](N2CC[C@H](Nc3ncnc4ccc(C(F)(F)F)cc34)C2=O)[C@H](NC(=O)[C@H]2C[C@@H](NC(=O)CCOCCOCCOCCNC(=O)[C@H]3CC(=O)N(C)[C@@H]3c3cccnc3)C2)C1` [Example 24, (2S,3S)-N-(2-(2-(2-(3-(((1S,3s)-3-(((1R,2S,5R)-5-(Isopropyl(methyl)amino)-2-((S)-2-oxo-3-((6-(trifluoromethyl)quinazolin-4-yl)amino)pyrrolidin-1-yl)cyclohexyl)carbamoyl)cyclobutyl)amino)-3-oxopropoxy)ethoxy)ethoxy)ethyl)-1-methyl-5-oxo-2-(pyridin-3-yl)pyrrolidine-3-carboxamide], the EC50 in test [1] is 1.26 nM. Moreover, in test [2], the “% Depletion of CCR2 expressing cells” value is 89.47%.

On to `CC(C)N(C)[C@@H]1CC[C@H](N2CC[C@H](Nc3ncnc4ccc(C(F)(F)F)cc34)C2=O)[C@H](NC(=O)[C@H]2CC[C@@H](NC(=O)CCOCCOCCOCCNC(=O)[C@H]3CC(=O)N(C)[C@@H]3c3cccnc3)CC2)C1` [Example 28, (2S,3S)-N-(2-(2-(2-(3-(((1S,4s)-4-(((1R,2S,5R)-5-(Isopropyl(methyl)amino)-2-((S)-2-oxo-3-((6-(trifluoromethyl)quinazolin-4-yl)amino)pyrrolidin-1-yl)cyclohexyl)carbamoyl)cyclohexyl)amino)-3-oxopropoxy)ethoxy)ethoxy)ethyl)-1-methyl-5-oxo-2-(pyridin-3-yl)pyrrolidine-3-carboxamide], for which the EC50 in test [1] was 1 nM. The “% Depletion of CCR2 expressing cells” value in test [2] is on record as 87.1%.

Regarding `CC(C)N(C)[C@@H]1CC[C@H](N2CC[C@H](Nc3ncnc4ccc(C(F)(F)F)cc34)C2=O)[C@H](NC(=O)[C@H]2CC[C@H](NC(=O)CCOCCOCCOCCNC(=O)[C@H]3CC(=O)N(C)[C@@H]3c3cccnc3)CC2)C1` [Example 30, (2S,3S)-N-(2-(2-(2-(3-(((1R,4r)-4-(((1R,2S,5R)-5-(Isopropyl(methyl)amino)-2-((S)-2-oxo-3-((6-(trifluoromethyl)quinazolin-4-yl)amino)pyrrolidin-1-yl)cyclohexyl)carbamoyl)cyclohexyl)amino)-3-oxopropoxy)ethoxy)ethoxy)ethyl)-1-methyl-5-oxo-2-(pyridin-3-yl)pyrrolidine-3-carboxamide], the EC50 in test [1] is 2.51 nM. In addition, the “% Depletion of CCR2 expressing cells” value in test [2] is 34.88%.

With `CCN1C(=O)C[C@H](C(=O)NCCOCCOCCOCCC(=O)N[C@H]2CC[C@@H](C(=O)N[C@@H]3C[C@H](N(C)C(C)C)CC[C@@H]3N3CC[C@H](Nc4ncnc5ccc(C(F)(F)F)cc45)C3=O)CC2)[C@H]1c1cccnc1` [Example 34, (2S,3S)-1-ethyl-N-(2-(2-(2-(3-((cis-4-(((1R,2S,5R)-5-(isopropyl(methyl)amino)-2-((S)-2-oxo-3-((6-(trifluoromethyl)quinazolin-4-yl)amino)pyrrolidin-1-yl)cyclohexyl)carbamoyl)cyclohexyl)amino)-3-oxopropoxy)ethoxy)ethoxy)ethyl)-5-oxo-2-(pyridin-3-yl)pyrrolidine-3-carboxamide], the EC50 in test [1] is 1.58 nM. The “% Depletion of CCR2 expressing cells” value in test [2] is recorded as 95%.

As to `CCN1C(=O)C[C@H](C(=O)NCCOCCOCCOCCC(=O)N[C@H]2CC[C@@H](C(=O)N[C@@H]3C[C@H](NC(C)(C)C)CC[C@@H]3N3CC[C@H](Nc4ncnc5ccc(C(F)(F)F)cc45)C3=O)CC2)[C@H]1c1cccnc1` [Example 35, (2S,3S)-N-(2-(2-(2-(3-(((1S,4s)-4-(((1R,2S,5R)-5-(tert-butylamino)-2-((S)-2-oxo-3-((6-(trifluoromethyl)quinazolin-4-yl)amino)pyrrolidin-1-yl)cyclohexyl)carbamoyl)cyclohexyl)amino)-3-oxopropoxy)ethoxy)ethoxy)ethyl)-1-ethyl-5-oxo-2-(pyridin-3-yl)pyrrolidine-3-carboxamide], in test [1], the EC50 was 0.631 nM. The “% Depletion of CCR2 expressing cells” value in test [2] is listed as 88.81%.

Consider `CN1C(=O)C[C@H](C(=O)NCCOCCOCCOCCOCCOCCC(=O)N[C@@H]2C[C@H](NC(C)(C)C)CC[C@@H]2N2CC[C@H](Nc3ncnc4ccc(C(F)(F)F)cc34)C2=O)[C@H]1c1cccnc1` [Example 37, (2S,3S)-N-(18-(((1R,2S,5R)-5-(tert-Butylamino)-2-((S)-2-oxo-3-((6-(trifluoromethyl)quinazolin-4-yl)amino)pyrrolidin-1-yl)cyclohexyl)amino)-18-oxo-3,6,9,12,15-pentaoxaoctadecyl)-1-methyl-5-oxo-2-(pyridin-3-yl)pyrrolidine-3-carboxamide], for which, in test [1], the EC50 was 5.01 nM. The “% Depletion of CCR2 expressing cells” value in test [2] was determined as 75%.

For the molecule `CN1C(=O)C[C@H](C(=O)NCCOCCOCCOCCOCCOCCOCCC(=O)N[C@@H]2C[C@H](NC(C)(C)C)CC[C@@H]2N2CC[C@H](Nc3ncnc4ccc(C(F)(F)F)cc34)C2=O)[C@H]1c1cccnc1` [Example 38, (2S,3S)-N-(21-(((1R,2S,5R)-5-(tert-Butylamino)-2-((S)-2-oxo-3-((6-(trifluoromethyl)quinazolin-4-yl)amino)pyrrolidin-1-yl)cyclohexyl)amino)-21-oxo-3,6,9,12,15,18-hexaoxahenicosyl)-1-methyl-5-oxo-2-(pyridin-3-yl)pyrrolidine-3-carboxamide], in test [1], the EC50 is 1.58 nM. Moreover, the “% Depletion of CCR2 expressing cells” value in test [2] is on record as 84.55%.

In the case of `CC(C)N(C)[C@@H]1CC[C@H](N2CC[C@H](Nc3ncnc4ccc(C(F)(F)F)cc34)C2=O)[C@H](NC(=O)C2CCC(NC(=O)CCOCCNC(=O)CCOCCNC(=O)[C@H]3CC(=O)N(C)[C@@H]3c3cccnc3)CC2)C1` (stereo partly drawn) [Example 48, (2S,3S)-N-(2-(3-((2-(3-(((1R,4r)-4-(((1R,2S,5R)-5-(Isopropyl(methyl)amino)-2-((S)-2-oxo-3-((6-(trifluoromethyl)quinazolin-4-yl)amino)pyrrolidin-1-yl)cyclohexyl)carbamoyl)cyclohexyl)amino)-3-oxopropoxy)ethyl)amino)-3-oxopropoxy)ethyl)-1-methyl-5-oxo-2-(pyridin-3-yl)pyrrolidine-3-carboxamide], in test [1], the EC50 was 2 nM. In addition, the “% Depletion of CCR2 expressing cells” value in test [2] is on record as 89%.

Regarding `CC(C)N(C)[C@@H]1CC[C@H](N2CC[C@H](Nc3ncnc4ccc(C(F)(F)F)cc34)C2=O)[C@H](NC(=O)[C@H]2C[C@@H](NC(=O)CCOCCOCCNC(=O)CCNC(=O)[C@H]3CC(=O)N(C)[C@@H]3c3cccnc3)C2)C1` [Example 49, (2S,3S)-N-(3-((2-(2-(3-(((1S,3s)-3-(((1R,2S,5R)-5-(Isopropyl(methyl)amino)-2-((S)-2-oxo-3-((6-(trifluoromethyl)quinazolin-4-yl)amino)pyrrolidin-1-yl)cyclohexyl)carbamoyl)cyclobutyl)amino)-3-oxopropoxy)ethoxy)ethyl)amino)-3-oxopropyl)-1-methyl-5-oxo-2-(pyridin-3-yl)pyrrolidine-3-carboxamide], the EC50 in test [1] is 0.501 nM. Also, the “% Depletion of CCR2 expressing cells” value in test [2] amounted to 85.84%.

On to `CC(C)N(C)[C@@H]1CC[C@H](N2CC[C@H](Nc3ncnc4ccc(C(F)(F)F)cc34)C2=O)[C@H](NC(=O)[C@H]2CC[C@@H](NC(=O)CCCO[C@H]3CC[C@H](NC(=O)CCNC(=O)[C@@H]4CC(=O)N(C)[C@H]4c4cccnc4)CC3)CC2)C1` [Example 52, (2S,3S)-N-(3-(((1R,4S)-4-(4-(((1S,4S)-4-(((1R,2S,5R)-5-(Isopropyl(methyl)amino)-2-((S)-2-oxo-3-((6-(trifluoromethyl)quinazolin-4-yl)amino)pyrrolidin-1-yl)cyclohexyl)carbamoyl)cyclohexyl)amino)-4-oxobutoxy)cyclohexyl)amino)-3-oxopropyl)-1-methyl-5-oxo-2-(pyridin-3-yl)pyrrolidine-3-carboxamide], for which, in test [1], the EC50 is 0.2 nM. Also, the “% Depletion of CCR2 expressing cells” value in test [2] was found to be 79.18%.

As to `CC(C)N(C)[C@@H]1CC[C@H](N2CC[C@H](Nc3ncnc4ccc(C(F)(F)F)cc34)C2=O)[C@H](NC(=O)[C@H]2CC[C@H](NC(=O)CCOC[C@H]3CC[C@H](COCCNC(=O)[C@H]4CC(=O)N(C)[C@@H]4c4cccnc4)CC3)CC2)C1` [Example 53, (2S,3S)-N-(2-(((1R,4S)-4-((3-(((1R,4R)-4-(((1R,2S,5R)-5-(Isopropyl(methyl)amino)-2-((S)-2-oxo-3-((6-(trifluoromethyl)quinazolin-4-yl)amino)pyrrolidin-1-yl)cyclohexyl)carbamoyl)cyclohexyl)amino)-3-oxopropoxy)methyl)cyclohexyl)methoxy)ethyl)-1-methyl-5-oxo-2-(pyridin-3-yl)pyrrolidine-3-carboxamide], the EC50 in test [1] was 0.631 nM. Besides, the “% Depletion of CCR2 expressing cells” value in test [2] turned out to be 68.42%.

On to `CC(C)N(C)[C@@H]1CC[C@H](N2CC[C@H](Nc3ncnc4ccc(C(F)(F)F)cc34)C2=O)[C@H](NC(=O)[C@H]2CC[C@H](NC(=O)CCCOC[C@H]3CC[C@@H](COCCNC(=O)[C@H]4CC(=O)N(C)[C@@H]4c4cccnc4)CC3)CC2)C1` [Example 57, (2S,3S)-N-(2-(((1S,4R)-4-((4-(((1R,4R)-4-(((1R,2S,5R)-5-(Isopropyl(methyl)amino)-2-((S)-2-oxo-3-((6-(trifluoromethyl)quinazolin-4-yl)amino)pyrrolidin-1-yl)cyclohexyl)carbamoyl)cyclohexyl)amino)-4-oxobutoxy)methyl)cyclohexyl)methoxy)ethyl)-1-methyl-5-oxo-2-(pyridin-3-yl)pyrrolidine-3-carboxamide], for which the EC50 in test [1] is 1.58 nM. Moreover, the “% Depletion of CCR2 expressing cells” value in test [2] turned out to be 77%.
